Legend:
[1] = tested on: human IgG (polyclonal antirhamnose antibodies); assay: BLI monitoring of covalent reaction with human IgG (Figure 4B); assay type: binding; details: 10 μM cARM, 230 μM human IgG, up to 25 h
Description: The design of rhamnose-SO2F-cARM was again supported by in-silico docking and predicted to preorganize electrophilic SO2F proximal to lysine 104 and serine 53 of the anti-23F heavy chain as well as tyrosine 32 of the light chain (Figure S3). To evaluate the capacity of rhamnose-SO2F-cARMs to specifically label polyclonal antirhamnose antibodies, a tool cARM with a biotin TBD was synthesized (compound 12, Figure 4A, Scheme S5). As an orthogonal kinetics assay to fluorescent gels, tool compound 12 labeling kinetics was first evaluated using an in-house BLI assay and compared to acyl imidazole cARM and ARM analogs. […] Solutions were immediately loaded onto streptavidin probes (Figure 4B, Figure S8). In this assay, rhamnose competition blocks noncovalent antirhamnose recruitment, thus the signal amplitude is directly proportional to the covalently labeled antibody product.
Figure 4 Selectivity and kinetic analysis of optimized Rha-SO2F-cARMs A. Chemical structures of tool compounds used in this study. B. cARM 12 (10 μM) was incubated with human IgG or BSA (230 μM) then diluted 8× with 100 mM competitor rhamnose spiked kinetics buffer and loaded onto streptavidin probes in BLI. The association plateau was plotted against time to yield the % labeled vs time covalent labeling curve C. Kinetic fluorescence SDS-PAGE assay similar to that in Figure 2D. […]

anti-23F antibody = assay: Mass spectrometry study of anti-23F labelling; assay type: binding, human; details: 10 µM cARM, 2.7 µM anti-23F, 45 hours
Method: To further confirm selectivity, an MS study was conducted to determine the site of labeling (Figures S10 and S11). […] No other labeling site was detected on the light chain; however, the lability of the SO2F-serine/tyrosine linkage to MS sample preparation protocols likely limited complete labeling site coverage. […] Due to the low labeling efficiency of rhamnose-AI-cARM, no labeling site could be identified. […] Determining the selectivity for antirhamnose antibodies in the presence of off-target cell surface proteins will be the focus of future in vivo studies.
Mass Spectrometry Study – Anti-23F Labelling
Anti-23F (2.7 µM) was incubated with 10 µM of Biotin-AI-cAR M 4 or Biotin-SO2F-cAR M 12, or PBS (antibody only) for 45 hours before MS analysis. Analysis was completed by Bioinformatics Solutions
Inc. Briefly, for intact protein analysis each sample was treated with PNGase F to remove glycans followed by LC-MS analysis. To determine site of labelling, each sample was digested with tryspin, chymostrypsin, and pepsin then analyzed by LC-MS/MS on a timsTOF Pro. Peptide spectra were mapped to a known antibody sequence (anti -23F antibody, Creative Biolabs - PABX-173). No labelling was identified with acyl imidazole containing cARM 4. […]
approxima tely 30% labelling post MS protocol (Figure S11)
Figure S10. Sample analysis of peptide mapping of anti-23F heavy chain. Modification with cARM 12 is […]
(1 picture or pasted object on this page, not shown here)

C[C@@H]1O[C@@H](OCc2cn(CCc3cn(C(=O)OCCOCCOCCOCCOCCOCCOCCOCCNC(=O)CCCC[C@@H]4SC[C@@H]5NC(=O)N[C@@H]54)cn3)nn2)[C@H](O)[C@H](O)[C@H]1O [compound 4]
progress of labeling reaction [1]: still in the linear phase of the reaction
site of labelling (LC-MS/MS peptide mapping) (anti-23F antibody): No labelling

From article PMC10683482, “Offsetting Low-Affinity Carbohydrate Binding with Covalency to Engage Sugar-Specific Proteins for Tumor-Immune Proximity Induction” (ACS Central Science, 2023)
